# Data: patent US20100190711A1, “BIG GASTRIN I AS A THERAPEUTIC AGENT” (priority 2007, published 2010)
# Where a SMILES comes first, the peptide text is derived from it. [ ]: non-standard residue; d: D form. pGlu = O=C1CC[C@@H](C(=O)O)N1
# Columns and labels:
# [1] = tested on: CEM-SS cells; assay: Cytotoxicity (MTS cell viability) in the HIV-1 assay; details: CEM-SS cells, MTS; peptide 10 micrograms per ml
# [2] = tested on: HIV-1IIIB; assay: HIV-1 antiviral assay (CPE reduction, MTS) in CEM-SS cells; format: cell-based; details: peptide 10 micrograms per ml; 6 days post-infection
# [3] = Cytotoxicity (MTS cell viability) in the HIV-1 assay; details: human, CEM-SS cells (uninfected, cells plus peptide only)
# [4] = Cytotoxicity (CellTiter 96 cell viability) in the HCMV assay; details: human, MRC-5 cells (embryonal lung fibroblasts)
# [5] = in vitro; details: human, HepG2-2.2.15 cells
# [6] = tested on: Pseudomonas aeruginosa; format: cell-based; details: 5 micrograms per ml
# [7] = tested on: MRSA; details: 5 micrograms per ml
# [8] = tested on: Streptococcus pneumoniae; format: cell-based; details: 5 micrograms per ml
# [9] = tested on: MRC-5 cells; assay: Cytotoxicity (CellTiter 96 cell viability) in the HCMV assay; details: MRC-5 cells, 6 days incubation
smiles,measurement,setting,value
"Cc1cn([C@H]2C[C@H](N=[N+]=[N-])[C@@H](CO)O2)c(=O)[nH]c1=O [AZT, reference compound]",% Cell viability,[1],97%
same,% CPE reduction in HIV-1 infected CEM-SS cells,[2],99%
"CC(C)(C)NC(=O)[C@@H]1CN(Cc2cccnc2)CCN1C[C@@H](O)C[C@@H](Cc1ccccc1)C(=O)N[C@H]1c2ccccc2C[C@H]1O [Indinavir, indinavir]",% CPE reduction in HIV-1 infected CEM-SS cells,[2],100%
CSCC[C@H](NC(=O)[C@H](Cc1c[nH]c2ccccc12)NC(=O)CNC(=O)[C@H](Cc1ccc(O)cc1)NC(=O)[C@H](C)NC(=O)[C@H](CCC(=O)O)NC(=O)[C@H](CCC(=O)O)NC(=O)[C@H](CCC(=O)O)NC(=O)[C@H](CCC(=O)O)NC(=O)[C@H](CCC(=O)O)NC(=O)[C@H](CC(C)C)NC(=O)[C@H](Cc1c[nH]c2ccccc12)NC(=O)[C@@H]1CCCN1C(=O)CNC(=O)[C@H](CCC(N)=O)NC(=O)[C@H](CCCCN)NC(=O)[C@H](CCCCN)NC(=O)[C@H](CO)NC(=O)[C@@H]1CCCN1C(=O)[C@H](CC(=O)O)NC(=O)[C@H](C)NC(=O)[C@@H](NC(=O)[C@H](CC(C)C)NC(=O)[C@H](Cc1c[nH]cn1)NC(=O)[C@@H]1CCCN1C(=O)[C@@H]1CCCN1C(=O)CNC(=O)[C@H](CCC(N)=O)NC(=O)[C@@H]1CCCN1C(=O)CNC(=O)[C@H](CC(C)C)NC(=O)[C@@H]1CCC(=O)N1)C(C)C)C(=O)N[C@@H](CC(=O)O)C(=O)N[C@@H](Cc1ccccc1)C(N)=O [Big Gastrin I] ([pGlu]LGPQGPPHLVADPSKKQGPWLEEEEEAYGWMDF-NH2),viability at 10 micrograms per ml,[3],100%
same,viability at 144 h,[4],100%
same,"viability at 144 h, 10 micrograms per ml",[5],88.7%
same,% inhibition,[6],0.0%
same,% inhibition,[7],0.0%
same,% inhibition,[8],0.0%
"Nc1nc(O)c2ncn(COC(CO)CO)c2n1 [Ganciclovir, reference compound]",% Cell viability,[9],100%
